Reference: patent publication US20220257764A1, “USE OF DIKETONE COMPOUND IN PHOTODYNAMIC THERAPY OR DIAGNOSIS” (BEIJING WHOLESOMETECH CO., LTD., priority 2019, published 2022)

Experiments:
SW480 colon cancer cells = assay: MTT toxicity to tumor cells, under light and in the dark; format: cell-based; conditions: Homo sapiens, SW480; under light, 450-480 nm laser, 110 mW/cm^2, 900 s
Procedure: (§1) In this experimental example, the toxicity of the compound to tumor cells was tested by an MTT method including the following specific steps.
(§2) (1) Logarithmic cells were collected, the concentration of a cell suspension was adjusted, the cell suspension was added to a cell culture plate in a dose of 100 μL per well, and the cells were then added to a cell culture plate so that the density of the cells to be tested was adjusted to 1000-10000 wells (edge wells were filled with sterile PBS).
(§3) (2) The cells were incubated at 37° C. in the presence of 5% CO2 until the cells in a single layer covered the bottom of each well (96-well flat-bottom plate), and a drug in concentration gradients was added. Generally, the drug in 5 to 7 gradients was added in a dose of 100 μL per well, and 3 to 5 multi-wells were set.
(§4) (3) The cells were randomly divided into treated groups under light and treated groups in the dark, incubated at 37° C. in the presence of 5% CO2 for 16 h to 48 h, and observed with an inverted microscope.
(§5) (4) The cells were irradiated for 900 s with a laser having a wavelength of 450 nm to 480 nm (at an intensity of 110 mW/cm^2), and the final light dose was about 100 J/cm^2. After light irradiation, the cells were washed with PBS.
(§6) (5) An MTT solution (5 mg/ml, 0.5% MTT) was added in a dose of 20 μL per well to further incubate the cells for 4 h. If the drug could react with the MTT, centrifuging was carried out first, and then the culture solution was discarded and the cells were carefully washed twice or three times with PBS, and then the culture solution containing MTT was added.
(§7) (6) The culture was terminated and the culture solution in the wells was carefully removed.
(§8) (7) Dimethyl sulfoxide was added in a dose of 150 μL per well, and the plate was then shaken on a shaker at a low speed for 10 min to fully dissolve crystals. The absorbance at OD 490 nm of each well was measured with enzyme-linked immunoassay.
(§9) (8) Zero adjustment wells (medium, MTT, dimethyl sulfoxide) and control wells (cells, dissolving media of the same concentration, culture solution, MTT, dimethyl sulfoxide) were set at the same time.

B16 melanoma cell = assay: as above; format: cell-based; conditions: Mus musculus, under light, 450-480 nm laser, 110 mW/cm^2, 900 s
Procedure: as §1, §2, §3, §4, §5, §6, §7, §8, §9

[1] = Blood routine and blood biochemical indicators of tumor-bearing mice after 2 weeks of treatment; format: in vivo, BALB/C mice; design: Mean corpuscular hemoglobin (MCH) / Mean corpuscular volume (MCV) / Red blood cell volume distribution width (RDW) / Hematocrit (HCT) / Hemoglobin (HGB): unit not given here; conditions: for Hematocrit (HCT) / Hemoglobin (HGB) / Mean corpuscular hemoglobin (MCH) / Mean corpuscular hemoglobin concentration (MCHC) / Mean corpuscular volume (MCV) / Mean platelet volume (MPV) / Platelet count (PLT) / Platelet distribution width (PDW) / Plateletocrit (PCT) / Red blood cell volume distribution width (RDW) / Red blood count (RBC) / White blood cell count (WBC): after 2 weeks
Procedure: 1. Photodynamic therapy experiments on tumors were carried out by using BJMU-204 as a photosensitizer and BALB/C mice as experimental animals.
Modeling mode: BALB/C mice were divided into 5 groups in total, 11-12 mice in each group. 4T1 cells (breast cancer cells in mice) were resuscitated and subcultured to a better cell state for tumorigenesis inoculation. BALB/C mice were locally depilated and disinfected, and tumor cells were injected into the mouse mammary fat pad in situ. Tumors were formed within 7 to 10 days.
Administration time: drug intervention was given to mice after tumor formation, and photodynamic therapy was given by intratumoral injection every other day under the irradiation of laser with a wavelength of 450 nm to 480 nm at a light intensity of 200 mW/cm^2.
Administration mode: as shown in the table below, the photosensitizer was dissolved in physiological saline and injected in mice in groups 1-3 intratumorally, and the groups receiving photodynamic therapy were irradiated with light immediately after the injection.
2. Mice in each experimental group were subjected to blood collection for serum separation and necropsy, and tumors were taken out and measured to obtain their wet weights; tumor tissues were fixed, pathological examinations were performed, and H. E. staining was used to observe the changes of tumors of the mice under an optical microscope; blood routine indicators (including white blood cell count (WBC), red blood cell count (RBC), lymphocyte count (LY), platelet count (PLT) and many other blood routine indicators) and blood biochemical indicators (including routine blood biochemical indicators) were tested and analyzed in the Laboratory of Peking University Third Hospital.

[2] = Phototoxicity to healthy mice (body weight, blood routine, blood biochemistry); format: in vivo, BALB/C mice
Procedure: BALB/C mice were divided into 2 groups in total, 9 mice in each group. The mice were fed adaptively for 2 days. Mice in a control group were fed normally, and mice in an experimental group were given photodynamic therapy by subcutaneous injection every other day under the irradiation of laser with a wavelength of 450 nm to 480 nm at a light intensity of 200 mW/cm^2.
Administration mode: as shown in the table below, the photosensitizer was dissolved in physiological saline and subcutaneously injected in mice in the experimental group, and the group receiving photodynamic therapy was irradiated with light immediately after the injection.
2. The mice in the experimental group and the control group were weighed every other day. At the end of the experiment, the mice were subjected to blood collection for serum separation and necropsy, and blood routine indicators (including WBC, RBC, LY, PLT and many other blood routine indicators) and blood biochemical indicators (including routine blood biochemical indicators) were tested and analyzed in the Laboratory of Peking University Third Hospital.

[3] = Control group-1: intratumoral injection 3%, no light
[4] = High-concentration (3%) intratumoral injection + light 10 min
[5] = Low-concentration (0.5%) intratumoral injection + light 10 min
[6] = 3% subcutaneous injection + light 10 min, after 2 weeks

In the case of `CC(=O)C(C)=O` [BJMU-204], the IC50 (SW480 colon cancer cells) is reported as 600 ± 50 nM, the IC50 (B16 melanoma cell) is reported as 500 ± 30 nM and the “Hematocrit (HCT)” value [1, 3] is reported as 28.8 ± 5.76. For the same compound, the “Hemoglobin (HGB)” value [1, 3] was 117 ± 26.64, the “Mean corpuscular hemoglobin (MCH)” value [1, 3] was 18.43 ± 0.67 and the “Mean corpuscular hemoglobin concentration (MCHC)” value [1, 3] was 404.5 ± 26.01. The “Mean corpuscular volume (MCV)” value [1, 3] was 45.65 ± 1.35, the “Mean platelet volume (MPV)” value [1, 3] was 6.1 ± 0 and the “Platelet count (PLT)” value [1, 3] was 312 ± 125.04. The “Platelet distribution width (PDW)” value [1, 3] was 16.2 ± 0, the “Plateletocrit (PCT)” value [1, 3] was 0.24 ± 0 and the “Red blood cell volume distribution width (RDW)” value [1, 3] was 14.18 ± 0.75. The “Red blood count (RBC)” value [1, 3] was 6.33 ± 1.36, the “White blood cell count (WBC)” value [1, 3] was 352.8 ± 45.95 and the “Hematocrit (HCT)” value [1, 4] was 32.4 ± 12.48. For the same compound, the “Hemoglobin (HGB)” value [1, 4] was 123 ± 40.8, the “Mean corpuscular hemoglobin (MCH)” value [1, 4] was 18.43 ± 1.93 and the “Mean corpuscular hemoglobin concentration (MCHC)” value [1, 4] was 387.5 ± 40.38. The “Mean corpuscular volume (MCV)” value [1, 4] was 47.5 ± 1.95, the “Mean platelet volume (MPV)” value [1, 4] was 6.63 ± 0.76 and the “Platelet count (PLT)” value [1, 4] was 267 ± 167.28. For the same compound, the “Platelet distribution width (PDW)” value [1, 4] was 15.13 ± 0.76, the “Plateletocrit (PCT)” value [1, 4] was 0.24 ± 0.12 and the “Red blood cell volume distribution width (RDW)” value [1, 4] was 14.58 ± 0.84. The “Red blood count (RBC)” value [1, 4] was 6.81 ± 2.51, the “White blood cell count (WBC)” value [1, 4] was 136.8 ± 31.45 and the “Hematocrit (HCT)” value [1, 5] was 32.64 ± 12.12. The “Hemoglobin (HGB)” value [1, 5] was 141.6 ± 42.72, the “Mean corpuscular hemoglobin (MCH)” value [1, 5] was 20.1 ± 1.84 and the “Mean corpuscular hemoglobin concentration (MCHC)” value [1, 5] was 447 ± 48.54. The “Mean corpuscular volume (MCV)” value [1, 5] was 45.04 ± 1.21, the “Mean platelet volume (MPV)” value [1, 5] was 6.23 ± 0.61 and the “Platelet count (PLT)” value [1, 5] was 494.4 ± 387.6. For the same compound, the “Platelet distribution width (PDW)” value [1, 5] was 13.37 ± 1.47, the “Plateletocrit (PCT)” value [1, 5] was 0.48 ± 0.24 and the “Red blood cell volume distribution width (RDW)” value [1, 5] was 13.78 ± 0.59. The “Red blood count (RBC)” value [1, 5] was 7.22 ± 2.62, the “White blood cell count (WBC)” value [1, 5] was 193.5 ± 70 and the “number of platelets and white blood cells in the blood” value ([1]; treated groups vs control groups (p<0.001), after 2 weeks of treatment) was “decreases”. The “liver, kidney and blood toxicity” value ([1]; tumor-bearing mice, continuous treatment for 14 days at high or low concentration therapeutic doses) was “will not cause liver, kidney and blood toxicity”, the “body weight, experimental group vs control group” value ([2]; 3% subcutaneous + light, 14 days after treatment) was “no significant difference” and the “Hematocrit (HCT)” value [2, 6] was 45.22 ± 2.83. The “Hemoglobin (HGB)” value [2, 6] was 160.22 ± 12.07, the “Mean corpuscular hemoglobin (MCH)” value [2, 6] was 16.18 ± 0.34 and the “Mean corpuscular hemoglobin concentration (MCHC)” value [2, 6] was 354.11 ± 8.19. For the same compound, the “Mean corpuscular volume (MCV)” value [2, 6] was 45.71 ± 0.6, the “Mean platelet volume (MPV)” value [2, 6] was 6.23 ± 0.37 and the “Platelet count (PLT)” value [2, 6] was 290 ± 50.23. For the same compound, the “Platelet distribution width (PDW)” value [2, 6] was 14.84 ± 0.6, the “Plateletocrit (PCT)” value [2, 6] was 0.17 ± 0.03 and the “Red blood cell volume distribution width (RDW)” value [2, 6] was 12.67 ± 0.54. The “Red blood count (RBC)” value [2, 6] was 9.9 ± 0.72, the “White blood cell count (WBC)” value [2, 6] was 6.56 ± 0.54 and the “liver, kidney and blood toxicity” value ([2]; continuous treatment for 14 days at high concentration therapeutic doses) was “will not cause liver, kidney and blood toxicity”.
